Patent US12544356B2, “Combination of a chromene compound and a second active agent” (EUCLISES PHARMACEUTICALS, INC., priority 2016, dated 2026)

Legend:
[1] = Plasma concentration of Compound A01 and erlotinib (Example 1); type: in vivo, CB17SCID male mice; settings: for concentration at 2 h / concentration at 6 h: male, CB17SCID, mouse, plasma; for concentration at 2 h: 2 hours post dosing; for concentration at 6 h: 6 hours post dosing
Protocol: (§1) 48 CB17SCID male mice were implanted with 2.5×10^6 HT29 cells. Growth of the tumor was calculated for each animal using a caliper and the equation: V=π×ab^2/6.
(§2) Mouse weight and tumor volume measurements were taken on days 0, 3, 6, 9, 12, 15, 18, 21, and 22 following randomization.

[2] = tested on: PGE2; test: Intratumoral concentration of PGE2 in HT-29 tumors (Example 1); type: in vivo, CB17SCID male mice; settings: HT-29 tumor, day 24
Protocol: as §1, §2

[3] = tested on: CT26 xenograft murine colon carcinoma model; test: CT26 tumor rejection, COX-2 inhibitor with anti-PD1 antibody (Example 2); type: in vivo, female BALB/c mice; settings: up to 50 days following inoculation, COX-2 inhibitor oral daily from day 0, anti-PD-1 200 μg/mouse i.p.
Protocol: CT26.WT cells were cultured under standard conditions. They were harvested with trypsin and washed with PBS. 10^5 cells were injected into the right flank of 6 week old female BALB/c mice in total volume of 100 μL. Tumor size was quantified as the mean of the longest diameter and its perpendicular.

[4] = tested on: immune cell infiltration into the tumors (CT26); test: Immune response to CT26 tumors: tumor-infiltrating and splenic immune cells (Example 3); type: in vivo, Female BALB/c mice; settings: Day 16; compared to vehicle treated mice
Protocol: Female BALB/c mice were inoculated with 10^5 CT26 colorectal cancer cells as in Example 2. […] Anti-PD1 antibody was administered i.p. (200 μg/mouse) at days 9 and 14 post inoculation. Tumors were analyzed at day 16 (7 days after first anti-PD1 administration).

[5] = tested on: CT26.WT murine colon carcinomas; test: CT26 tumor volume, Compound A01 vs celecoxib (Example 6); type: in vivo, Female Harlan Balb/c mice (BALB/cAnNHsd)
Protocol: (§3) CT26 murine colon carcinoma cells were prepared as in Example 2. Female Harlan Balb/c mice (BALB/cAnNHsd) were inoculated with 5×10^5 CT26 cells suspended in PBS (200 μL) subcutaneously high in the axilla (just under the fore limb). All mice were sorted into study groups based on caliper measurement estimation of tumor burden on Day 8 when the mean tumor burden for all animals was approximately 79 mm^3 (range of group means, 75-83 mm^3).

[6] = tested on: prostaglandin E2 (PGE2); test: CT26 tumoral PGE-2 (Example 6); type: in vivo, Female Harlan Balb/c mice (BALB/cAnNHsd)
Protocol: as §3

effect of oral dosing of erlotinib on plasma concentration of Compound A01 ([1]; 2 and 6 hours post dosing): influenced | concentration at 2 h ([1]; A01 1 mg/kg oral): 3610 ± 1350 ng/mL | concentration at 2 h ([1]; A01 10 mg/kg oral): 28400 ± 6020 ng/mL | concentration at 6 h ([1]; A01 1 mg/kg oral): 2250 ± 529 ng/mL | concentration at 6 h ([1]; A01 10 mg/kg oral): 19100 ± 5170 ng/mL
SMILES: [2H]C([2H])([2H])c1cc(Br)cc2c1O[C@H](C(F)(F)F)C(C(=O)O)=C2 [Compound A01, (S)-6-bromo-8-trideuteromethyl-2-(trifluoromethyl)-2H-chromene-3-carboxylic acid]
Intratumoral concentration of PGE2 (mean ± SD) ([2]; A01 1 mg/kg): 14.01 ± 30.3 µg/g | Intratumoral concentration of PGE2 (mean ± SD) ([2]; A01 10 mg/kg): 0 µg/g | tumor rejection / tumor growth [3]: did not prevent tumor growth | CD45+ (leukocyte), CD3+, CD8+, CD8+IFNγ+, CD4+IFNγ+, CD8+TNFα+ and CD4+TNFα+ cell infiltration into the tumors [4]: increase | CT26 Tumor Volume ([5]; Day 8, 0.3 mg/kg): 80 ± 6 mm^3 | CT26 Tumor Volume ([5]; Day 8, 1 mg/kg): 78 ± 5 mm^3 | CT26 Tumor Volume ([5]; Day 8, 3 mg/kg): 83 ± 3 mm^3 | CT26 Tumor Volume ([5]; Day 8, 10 mg/kg): 79 ± 6 mm^3 | CT26 Tumor Volume ([5]; Day 8, 30 mg/kg): 78 ± 5 mm^3 | CT26 Tumor Volume ([5]; Day 10, 0.3 mg/kg): 139 ± 15 mm^3 | CT26 Tumor Volume ([5]; Day 10, 1 mg/kg): 118 ± 17 mm^3 | CT26 Tumor Volume ([5]; Day 10, 3 mg/kg): 127 ± 11 mm^3 | CT26 Tumor Volume ([5]; Day 10, 10 mg/kg): 121 ± 14 mm^3 | CT26 Tumor Volume ([5]; Day 10, 30 mg/kg): 119 ± 8 mm^3 | CT26 Tumor Volume ([5]; Day 13, 0.3 mg/kg): 460 ± 73 mm^3 | CT26 Tumor Volume ([5]; Day 13, 1 mg/kg): 286 ± 48 mm^3 | CT26 Tumor Volume ([5]; Day 13, 3 mg/kg): 314 ± 49 mm^3 | CT26 Tumor Volume ([5]; Day 13, 10 mg/kg): 257 ± 35 mm^3 | CT26 Tumor Volume ([5]; Day 13, 30 mg/kg): 309 ± 34 mm^3 | CT26 Tumor Volume ([5]; Day 15, 0.3 mg/kg): 694 ± 116 mm^3 | CT26 Tumor Volume ([5]; Day 15, 1 mg/kg): 433 ± 67 mm^3 | CT26 Tumor Volume ([5]; Day 15, 3 mg/kg): 560 ± 79 mm^3 | CT26 Tumor Volume ([5]; Day 15, 10 mg/kg): 590 ± 109 mm^3 | CT26 Tumor Volume ([5]; Day 15, 30 mg/kg): 563 ± 89 mm^3 | CT26 Tumor Volume ([5]; Day 17, 0.3 mg/kg): 1123 ± 198 mm^3 | CT26 Tumor Volume ([5]; Day 17, 1 mg/kg): 689 ± 114 mm^3 | CT26 Tumor Volume ([5]; Day 17, 3 mg/kg): 834 ± 114 mm^3 | CT26 Tumor Volume ([5]; Day 17, 10 mg/kg): 758 ± 130 mm^3 | CT26 Tumor Volume ([5]; Day 17, 30 mg/kg): 897 ± 101 mm^3 | Mean PGE-2 Concentration (CT26 tumoral) ([6]; 0.3 mg/kg (Group 6)): 670 ng/g | Mean PGE-2 Concentration (CT26 tumoral) ([6]; 1 mg/kg (Group 5)): 278 ng/g | Mean PGE-2 Concentration (CT26 tumoral) ([6]; 30 mg/kg (Group 2)): 150 ng/g
